Test results from the NIST ThermoML archive (doi:10.1016/j.jct.2016.02.008).
Numbers after ± are expanded uncertainties.

Columns and labels:
[1] = Crystal; for Normal melting temperature: DTA; for mass density: 298.15 K, 101.33 kPa, measuring the mass and volume of a pellet
[2] = Molar enthalpy of transition or fusion; details: Crystal; DSC
[3] = molar heat capacity at constant pressure; details: 298.15 K; 101.33 kPa; Crystal; Small sample (50 mg) DSC

Structure (SMILES)	Normal melting temperature [1] [°C]	Molar enthalpy of transition or fusion [2] [kcal/mol]	molar heat capacity at constant pressure [3] [J/K/mol]	mass density [1] [kg/m3]
CC(=O)c1cc2ccccc2o1 [2-acetylbenzofuran]	66 ± 0.9	5.09 ± 0.12	192.1 ± 5.3	–
O=C(O)c1cc2ccccc2s1 [benzo[b]thiophene-2-carboxylic acid]	244.6 ± 0.6	7.5 ± 0.165	179 ± 4.6	1490 ± 120
O=C(O)c1cc2ccccc2o1 [benzofuran-2-carboxylic acid]	196.7 ± 0.6	6.49 ± 0.155	184.8 ± 3.9	1340 ± 60
O=C(O)c1cc2ccccc2[nH]1 [indole-2-carboxylic acid]	210.0 ± 0.8	5.49 ± 0.153	178.4 ± 5.5	–
